The record followed here is ChEMBL document CHEMBL1134207, “Synthesis and antiviral activity of novel D- and L-2'-azido-2',3'-dideoxyribofuranosyl-4'-thiopyrimidines and purines” (Bioorg Med Chem Lett, 2001).

Format in all cases: functional, organism-based
One assay has as its system Human alphaherpesvirus 1. Nature of the assay: Tested for antiviral activity against HSV-1 in CCL 81 cells.
For the next assay, the system named is Human alphaherpesvirus 2. Nature of the assay: Tested for antiviral activity against HSV-2 in CCL 81 cells.
In assay [1] the test system is Human betaherpesvirus 5. Nature of the assay: Tested for antiviral activity against HCMV in […] cells.
Assay [2] has as its system Human immunodeficiency virus 1. Nature of the assay: Tested for antiviral activity against HIV-1 in MT-4 cells. Particulars: MT4.
Assay [3] deals with Human betaherpesvirus 5. Nature of the assay: Tested for antiviral activity against HCMV in AD169 cell line. To be noted: Human betaherpesvirus 5, AD169.
Assay [4] concerns Human betaherpesvirus 5. Nature of the assay: Tested for antiviral activity against HCMV in Davis cell line. To be noted: Human betaherpesvirus 5, Davis.

≈ marks a conversion by molar mass, not a printed value. Calls of active or inactive are those of the source. The calls are words filed in the database; no cut-off is given here.

`[N-]=[N+]=N[C@H]1C[C@H](CO)S[C@H]1n1ccc(N)nc1=O`: the outcome (in the assay on Human alphaherpesvirus 1; in the assay with Human alphaherpesvirus 2; in assay [2]) was inactive. Moreover, the Activity result in the assay with Human betaherpesvirus 5 [1] was “Significant activity”.

Take `[N-]=[N+]=N[C@H]1C[C@H](COC(=O)c2ccccc2)S[C@H]1n1ccc(=O)n(C(=O)c2ccccc2)c1=O`: the outcome (with Human alphaherpesvirus 1; in the assay on Human alphaherpesvirus 2; in assay [2]) was inactive. Moreover, in the assay with Human betaherpesvirus 5 [1], the Activity entry was “Significant activity”.

As for `[N-]=[N+]=N[C@@H]1C[C@@H](CO)S[C@@H]1n1cnc2c(N)ncnc21`, the outcome (in the assay on Human alphaherpesvirus 1; in the assay with Human alphaherpesvirus 2; in assay [2]) was inactive. Further, in the assay on Human betaherpesvirus 5 [1], the Activity entry was “Significant activity”.

On to `CNc1ncnc2c1ncn2[C@@H]1S[C@@H](CO)C[C@@H]1N=[N+]=[N-]`, for which the result (with Human alphaherpesvirus 1; with Human alphaherpesvirus 2; in assay [2]) was inactive. Moreover, in the assay with Human betaherpesvirus 5 [1], the Activity entry was “Significant activity”.

Turning to `[N-]=[N+]=N[C@H]1C[C@H](CO)S[C@@H]1n1cnc2c(N)ncnc21`, the result (with Human alphaherpesvirus 1; in the assay with Human alphaherpesvirus 2; in assay [2]) was inactive. Moreover, the Activity result with Human betaherpesvirus 5 [1] was “Significant activity”.

In the case of `[N-]=[N+]=N[C@H]1C[C@H](CO)S[C@@H]1n1cnc2c(O)ncnc21`, the outcome (in the assay with Human alphaherpesvirus 1; in the assay with Human alphaherpesvirus 2; in assay [2]) was inactive. Besides, the Activity entry in the assay with Human betaherpesvirus 5 [1] was “Significant activity”.

As for `CC(=O)OC1S[C@@H](CO[Si](c2ccccc2)(c2ccccc2)C(C)(C)C)C[C@@H]1N=[N+]=[N-]` (stereo partly drawn), the outcome (with Human alphaherpesvirus 1; in the assay with Human alphaherpesvirus 2; with Human betaherpesvirus 5 [1]; in assay [2]) was inactive.

Regarding `CNc1ncnc2c1ncn2[C@H]1S[C@@H](CO)C[C@@H]1N=[N+]=[N-]`, the outcome (in the assay on Human alphaherpesvirus 1; in the assay with Human alphaherpesvirus 2; in assay [2]) was inactive. Further, in the assay on Human betaherpesvirus 5 [1], the Activity entry is “Significant activity”.

`[N-]=[N+]=N[C@H]1C[C@H](CO)S[C@@H]1n1ccc(=O)[nH]c1=O`: the outcome (in the assay with Human alphaherpesvirus 1; in the assay on Human alphaherpesvirus 2; in assay [2]) was inactive. In the assay with Human betaherpesvirus 5 [1], the Activity entry was “Significant activity”.

Take `Cc1cn([C@H]2S[C@@H](CO)C[C@@H]2N=[N+]=[N-])c(=O)[nH]c1=O`: the result (in the assay on Human alphaherpesvirus 1; with Human alphaherpesvirus 2; in assay [2]) was inactive. Moreover, the Activity result in the assay on Human betaherpesvirus 5 [1] was “Significant activity”.

As to `[N-]=[N+]=N[C@@H]1C[C@@H](CO)S[C@@H]1n1cnc2c(Cl)ncnc21`, the outcome (with Human alphaherpesvirus 1; in the assay with Human alphaherpesvirus 2; in assay [2]) was inactive. Also, in the assay with Human betaherpesvirus 5 [1], the Activity result was “Significant activity”.

With `[N-]=[N+]=N[C@H]1C[C@H](CO)S[C@@H]1n1ccc(N)nc1=O`, the outcome (in the assay with Human alphaherpesvirus 1; in the assay with Human alphaherpesvirus 2; in assay [2]) was inactive. Further, in the assay on Human betaherpesvirus 5 [1], the Activity result was “Significant activity”.

On to `[N-]=[N+]=N[C@H]1C[C@H](CO)S[C@H]1n1cnc2c(Cl)ncnc21`, for which the result (with Human alphaherpesvirus 1; in the assay with Human alphaherpesvirus 2; in assay [2]) was inactive. The Activity result with Human betaherpesvirus 5 [1] was “Significant activity”.

Turning to `[N-]=[N+]=N[C@H]1C[C@H](CO)S[C@H]1n1cnc2c(N)ncnc21`, the outcome (with Human alphaherpesvirus 1; with Human alphaherpesvirus 2; in assay [2]) was inactive. Besides, the Activity entry in the assay with Human betaherpesvirus 5 [1] is “Significant activity”.

Consider `CNc1ncnc2c1ncn2[C@@H]1S[C@H](CO)C[C@H]1N=[N+]=[N-]`, for which the 50% effective concentration (EC50) in the assay with Human betaherpesvirus 5 [3] turned out to be 26.1 µg/mL (≈ 85.2 µM); with Human betaherpesvirus 5 [4] it was 90.2 µg/mL (≈ 294 µM).

Consider `[N-]=[N+]=N[C@@H]1C[C@@H](CO)S[C@H]1n1cnc2c(Cl)ncnc21`, for which the result (in the assay on Human alphaherpesvirus 1; with Human alphaherpesvirus 2; in assay [2]) was inactive. Moreover, the Activity result in the assay with Human betaherpesvirus 5 [1] was “Significant activity”.

On to `[N-]=[N+]=N[C@H]1C[C@H](CO)S[C@H]1n1cnc2c(O)ncnc21`, for which the outcome (in the assay with Human alphaherpesvirus 1; in the assay on Human alphaherpesvirus 2; in assay [2]) was inactive. In addition, the Activity entry in the assay with Human betaherpesvirus 5 [1] was “Significant activity”.

In the case of `CC(C)(C)[Si](OC[C@H]1C[C@H](N=[N+]=[N-])[C@H](n2ccc(NC(=O)c3ccccc3)nc2=O)S1)(c1ccccc1)c1ccccc1`, the outcome (in the assay on Human alphaherpesvirus 1; in the assay on Human alphaherpesvirus 2; in assay [2]) was inactive. Also, in the assay on Human betaherpesvirus 5 [1], the Activity result was “Significant activity”.

On to `CC(C)(C)[Si](OC[C@H]1C[C@H](N=[N+]=[N-])[C@@H](n2ccc(NC(=O)c3ccccc3)nc2=O)S1)(c1ccccc1)c1ccccc1`, for which the result (in the assay with Human alphaherpesvirus 1; with Human alphaherpesvirus 2; in assay [2]) was inactive. Also, the Activity entry with Human betaherpesvirus 5 [1] is “Significant activity”.

As for `Nc1nc2c(ncn2COC(CO)CO)c(=O)[nH]1` [GANCICLOVIR], the figures for the concentration giving a half-maximal response (EC50) with Human betaherpesvirus 5 [3] and in the assay with Human betaherpesvirus 5 [4] were 0.98 µg/mL (≈ 3.84 µM) and 4.07 µg/mL (≈ 15.9 µM), respectively.

With `[N-]=[N+]=N[C@H]1C[C@H](CO)S[C@@H]1n1cnc2c(Cl)ncnc21`, the outcome (with Human alphaherpesvirus 1; in the assay on Human alphaherpesvirus 2; in assay [2]) was inactive. The Activity result in the assay on Human betaherpesvirus 5 [1] is “Significant activity”.

On to `[N-]=[N+]=N[C@@H]1C[C@@H](CO)S[C@H]1n1cnc2c(N)ncnc21`, for which the outcome (in the assay with Human alphaherpesvirus 1; in the assay on Human alphaherpesvirus 2; in assay [2]) was inactive. Also, the Activity entry with Human betaherpesvirus 5 [1] was “Significant activity”.

`Cc1cn([C@@H]2S[C@@H](CO)C[C@@H]2N=[N+]=[N-])c(=O)[nH]c1=O`: the result (in the assay with Human alphaherpesvirus 1; in the assay on Human alphaherpesvirus 2; in assay [2]) was inactive. Besides, the Activity result in the assay on Human betaherpesvirus 5 [1] was “Significant activity”.

In the case of `CNc1ncnc2c1ncn2[C@H]1S[C@H](CO)C[C@H]1N=[N+]=[N-]`, the EC50 in the assay on Human betaherpesvirus 5 [3] was found to be 19.1 µg/mL (≈ 62.5 µM); with Human betaherpesvirus 5 [4] it was 25.8 µg/mL (≈ 84.2 µM).

As for `[N-]=[N+]=N[C@H]1C[C@H](COC(=O)c2ccccc2)S[C@@H]1n1ccc(=O)n(C(=O)c2ccccc2)c1=O`, the result (in the assay on Human alphaherpesvirus 1; in the assay with Human alphaherpesvirus 2; in assay [2]) was inactive. Further, in the assay on Human betaherpesvirus 5 [1], the Activity entry is “Significant activity”.

Consider `[N-]=[N+]=N[C@H]1C[C@H](CO)S[C@H]1n1ccc(=O)[nH]c1=O`, for which the outcome (in the assay with Human alphaherpesvirus 1; in the assay on Human alphaherpesvirus 2; in assay [2]) was inactive. Further, the Activity result in the assay with Human betaherpesvirus 5 [1] is “Significant activity”.

One may read the EC50 as the concentration that produces a half-maximal response. Higher therefore signals weaker potency.
